# Results from PMC2581485, “Ca^2+ Signaling Occurs via Second Messenger Release from Intraorganelle Synthesis Sites” (Current Biology, 2008).
# Experiments:
# recombinant ARCα = target: T1, recombinant ARCα (Strongylocentrotus purpuratus, UniProt A5HNF3); assay: radiometric TLC of […]cADPR formation; format: biochemical; conditions: 16 nM substrate; labelled compound; 1 h, 20 °C; pH varied, acidic pH preferred
# T1 construct: gene ARCA
# recombinant ARCβ = target: T2, recombinant ARCβ (Strongylocentrotus purpuratus, UniProt A5HNF4); assay: radiometric TLC of […]cADPR formation; format: biochemical; conditions: 16 nM substrate; labelled compound; 1 h, 20 °C; pH varied, acidic pH preferred
# T2 construct: gene ARCB
# T2 sequence (A5HNF4 entry or part of it): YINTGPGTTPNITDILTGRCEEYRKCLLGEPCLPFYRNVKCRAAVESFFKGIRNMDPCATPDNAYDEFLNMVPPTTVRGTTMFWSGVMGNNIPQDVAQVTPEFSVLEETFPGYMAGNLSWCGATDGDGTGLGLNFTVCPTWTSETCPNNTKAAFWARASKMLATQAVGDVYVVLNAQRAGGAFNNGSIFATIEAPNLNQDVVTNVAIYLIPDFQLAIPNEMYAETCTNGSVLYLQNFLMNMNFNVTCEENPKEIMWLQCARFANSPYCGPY
# T1 sequence (A5HNF3 entry or part of it): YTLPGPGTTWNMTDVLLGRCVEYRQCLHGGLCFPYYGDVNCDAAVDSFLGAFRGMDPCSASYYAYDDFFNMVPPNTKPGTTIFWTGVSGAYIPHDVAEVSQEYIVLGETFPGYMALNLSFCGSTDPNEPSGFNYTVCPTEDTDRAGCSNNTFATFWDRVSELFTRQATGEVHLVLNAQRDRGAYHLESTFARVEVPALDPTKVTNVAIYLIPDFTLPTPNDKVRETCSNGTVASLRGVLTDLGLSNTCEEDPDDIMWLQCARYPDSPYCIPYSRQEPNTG
Compound,radiometric TLC of [32P]cADPR formation (recombinant ARCα),radiometric TLC of [32P]cADPR formation (recombinant ARCβ)
N=c1c2ncn3c2ncn1[C@@H]1O[C@H](COP(=O)(O)OP(=O)(O)OC[C@H]2O[C@@H]3[C@H](O)[C@@H]2O)[C@@H](O)[C@H]1O [cADPR],recombinant (Figure 3D) and endogenous (Figure 3C) sea urchin ARCs preferentially synthesize cADPR,pH dependency of recombinant ARCα or ARCβ is shown
NC(=O)c1ccc[n+]([C@@H]2O[C@H](COP(=O)([O-])OP(=O)(O)OC[C@H]3O[C@@H](n4cnc5c(N)ncnc54)[C@H](O)[C@@H]3O)[C@@H](O)[C@H]2O)c1 [β-NAD^+],recombinant (Figure 3D) and endogenous (Figure 3C) sea urchin ARCs preferentially synthesize cADPR,pH dependency of recombinant ARCα or ARCβ is shown
